Test [1] has as its target T1, hTRPM8 (Homo sapiens, UniProt Q7Z2W7).
T1 construct: expressed in transfected cells
As to the kind of experiment: hTRPM8 agonist assay in a mammalian cell line stably expressing hTRPM8. The test is classed as cell-based. The settings on record: for EC50 WS-3 Ratio: EC50 ratio to WS-3. The protocol:
A mammalian cell line derivative which stably expresses hTRPM8 was used in biological assays in association with testing the present compounds with cool-tasting or -feeling properties (Servant et al. US 2007/0259354 A1 and references cited therein). Typical compound concentrations tested were 100 μM, 50 μM, 10 μM, 1 μM, and 0.5 μM. The present compounds have shown strong activity as agonists of hTRPM8. Assay results for compounds are illustrated in Table 1 below. Specifically, the Examples listed in Table 1, i.e., Compounds A1 to Compounds U10 are the specific compounds, i.e., Examples, as described above.

The nature of test [2]: Cool Line Scale Test (sensory panel, 15 point line scale, WS-3 reference). Format: in vivo, human. As for the experimental part: All samples made with Low Sodium Buffer (LSB) pH ˜7.1 and contain 0.1% ethanol.
Compounds are rated on a 15 point line scale where 45 μM WS-3 (N-Ethyl-p-menthane-3-carboxamide) is ranked as a 5 in cool intensity. In most cases our compounds are tested to determine at what concentration the cooling intensity is equivalent to 45 μM WS-3. In each test, the panelist is presented with a 0 μM control sample, a 45 μM WS-3 control sample and the experimental compound sample and asked to rate the cooling intensity of each sample. Panelists are also asked to rate bitterness. In the table below there was no significant bitterness detected unless otherwise noted. Also, in the table below, n represents the number of tests completed for a given experiment (#panelists x #repetitions).
All samples were prepared with Low Sodium Buffer (LSB) pH ˜7.1 and contain 0.1% ethanol

Setting [3] is: Table 1, cell line stably expressing hTRPM8.
Setting [4] is: Table 7, scaffold T7, Ar phenyl vs thienyl.

T1 sequence (Q7Z2W7 whole entry): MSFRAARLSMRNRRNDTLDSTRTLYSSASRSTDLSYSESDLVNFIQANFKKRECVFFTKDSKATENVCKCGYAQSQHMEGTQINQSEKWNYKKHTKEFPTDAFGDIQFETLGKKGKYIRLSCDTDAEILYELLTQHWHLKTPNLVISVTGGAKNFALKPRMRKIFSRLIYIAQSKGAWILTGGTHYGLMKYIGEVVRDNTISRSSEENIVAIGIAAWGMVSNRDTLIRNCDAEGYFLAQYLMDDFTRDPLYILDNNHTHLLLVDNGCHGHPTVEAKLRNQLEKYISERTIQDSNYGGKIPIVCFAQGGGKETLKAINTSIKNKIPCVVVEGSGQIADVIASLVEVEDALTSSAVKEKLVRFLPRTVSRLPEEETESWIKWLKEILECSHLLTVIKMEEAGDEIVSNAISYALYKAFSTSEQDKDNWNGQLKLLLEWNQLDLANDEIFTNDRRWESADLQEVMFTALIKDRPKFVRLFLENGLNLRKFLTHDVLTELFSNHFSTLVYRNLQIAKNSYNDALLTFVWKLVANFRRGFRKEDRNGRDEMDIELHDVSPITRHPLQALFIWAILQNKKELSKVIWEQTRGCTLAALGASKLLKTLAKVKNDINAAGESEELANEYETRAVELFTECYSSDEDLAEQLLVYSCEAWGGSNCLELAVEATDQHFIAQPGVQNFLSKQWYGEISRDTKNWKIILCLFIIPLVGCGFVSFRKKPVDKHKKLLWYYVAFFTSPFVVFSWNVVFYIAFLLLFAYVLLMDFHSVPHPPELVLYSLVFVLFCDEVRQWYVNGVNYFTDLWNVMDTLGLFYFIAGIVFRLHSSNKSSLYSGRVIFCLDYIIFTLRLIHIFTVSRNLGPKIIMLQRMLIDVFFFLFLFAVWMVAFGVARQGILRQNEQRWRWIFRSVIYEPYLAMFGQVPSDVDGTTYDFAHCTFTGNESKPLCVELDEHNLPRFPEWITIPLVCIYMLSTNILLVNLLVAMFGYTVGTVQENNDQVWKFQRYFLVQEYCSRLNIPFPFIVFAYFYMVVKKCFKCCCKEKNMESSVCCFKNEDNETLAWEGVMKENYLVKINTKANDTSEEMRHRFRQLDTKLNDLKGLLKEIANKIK

In the case of `CCN(Cc1cccs1)C(=O)/C=C/c1ccc2c(c1)OCO2`, the EC50 in test [1] (Table 8, scaffold T8) was > 1 nM.

Turning to `O=C(COc1ccc2c(c1)CCC2)N(Cc1cccs1)c1cc[nH]n1` [Example A1, 2-(2,3-dihydro-1H-inden-5-yloxy)-N-(1H-pyrazol-3-yl)-N-(thiophen-2-ylmethyl)acetamide], the “EC50 WS-3 Ratio” value in test [1] (Table 1) is reported as 782471. Besides, in test [1] (setting [3]), the EC50 is 0.009 nM.

For the compound `Cc1c[nH]nc1N(Cc1cccs1)C(=O)COc1ccc2c(c1)CCC2` [Example B1, 2-(2,3-dihydro-1H-inden-5-yloxy)-N-(4-methyl-1H-pyrazol-3-yl)-N-(thiophen-2-ylmethyl)acetamide], the “EC50 WS-3 Ratio” value in test [1] (Table 1) is reported as 1000000. The same compound had an EC50 in test [1] (setting [3]) of 0.001 nM. In addition, the “Sensory Results: cooling compared with 0 μM WS-3” value in test [2] (compound at 5 μM) is recorded as “Panelists found 5 μM Compound B2 was significantly more cooling”.

For the compound `O=C(COc1ccc2c(c1)CCC2)N(Cc1cccs1)c1cn[nH]c1` [Example C1, 2-(2,3-dihydro-1H-inden-5-yloxy)-N-(1H-pyrazol-4-yl)-N-(thiophen-2-ylmethyl)acetamide], the “EC50 WS-3 Ratio” value in test [1] (Table 1) is 502141. The compound further registered an EC50 in test [1] (setting [3]) of 0.017 nM.

Take `Cc1ccc(OCC(=O)N(Cc2cccs2)c2ccn[nH]2)cc1` [Example F1, N-(1H-pyrazol-5-yl)-N-(thiophen-2-ylmethyl)-2-(p-tolyloxy)acetamide]: the “EC50 WS-3 Ratio” value in test [1] (Table 1) was 21178. For the same compound, the 50% effective concentration (EC50) in test [1] (setting [3]) was 0.205 nM. In test [2] (Table 4, 3 μM in LSB pH ~7.1, 0.1% ethanol, n = 28), the “Average Cooling” value stood at 5.1. In addition, in test [2] (compound at 3 μM), the “Sensory Results: cooling compared with 0 μM WS-3” value is “Panelists found 3 μM Compound F1 was significantly more cooling” and the “Sensory Results: cooling compared with 45 μM WS-3” value was “not significantly different in cooling”.

Consider `CCN(Cc1cccs1)C(=O)COc1ccc(C)cc1` [Example U1, N-ethyl-N-(thiophen-2-ylmethyl)-2-(p-tolyloxy)acetamide], for which the “EC50 WS-3 Ratio” value in test [1] (Table 1) is reported as 577. In test [1] (setting [3]), a half-maximal effect (EC50) was put at 7.7 nM. Further, in test [2] (compound at 5 μM), the “Sensory Results: cooling compared with 0 μM WS-3” value is on record as “Panelists found 5 μM Compound U1 was significantly more cooling”.

As for `CCNC(=O)C1CC(C)CCC1C(C)C` (centres unmarked) [WS-3, N-Ethyl-p-menthane-3-carboxamide, reference compound], the “Average Cooling” value amounted to 3.8 in test [2] (Table 2, 45 μM WS-3 control, LSB pH ~7.1, 0.1% ethanol, n = 30) and 5.2 in test [2] (Table 4, 45 μM WS-3 control, n = 28).

Consider `O=C(COc1ccc(Br)cc1)N(Cc1ccccc1)c1ccccn1` [drawing 234: 4-Br, 2-Pyridyl, Phenyl, reference compound], for which the concentration giving a half-maximal response (EC50) in test [1] (setting [4]) was 15600 nM.

Consider `O=C(COc1ccc(Br)cc1)N(Cc1cccs1)c1ccccn1` [drawing 234: 4-Br, 2-Pyridyl, Thienyl], for which the EC50 in test [1] (setting [4]) amounted to 2270 nM.

As to `O=C(COc1ccc(Cl)cc1)N(Cc1cccs1)c1ccccn1` [drawing 234: 4-Cl, 2-Pyridyl, Thienyl], the EC50 in test [1] (setting [4]) was 2320 nM.

Turning to `Cc1ccc(OCC(=O)N(Cc2ccccc2)c2ccccn2)cc1` [drawing 234: 4-Me, 2-Pyridyl, Phenyl, reference compound], in test [1] (setting [4]), the response was half-maximal at 4720 nM (EC50).

As for `Cc1ccc(OCC(=O)N(Cc2cccs2)c2ccccn2)cc1` [drawing 234: 4-Me, 2-Pyridyl, Thienyl], it took 505 nM to reach a half-maximal effect in test [1] (setting [4]) (EC50).

Regarding `CCN(Cc1ccccc1)C(=O)COc1ccc(C)cc1` [drawing 234: 4-Me, Ethyl, Phenyl, reference compound], in test [1] (setting [4]), the half-maximal effective concentration (EC50) was 776 nM.

Compound `CCN(Cc1cccs1)C(=O)COc1ccc(C)cc1` [drawing 234: 4-Me, Ethyl, Thienyl] showed an EC50 in test [1] (setting [4]) of 6.9 nM.

Take `Cc1ccc(OCC(=O)N(C)Cc2ccccc2)cc1` [drawing 234: 4-Me, Methyl, Phenyl, reference compound]: in test [1] (setting [4]), the EC50 was > 100000 nM.

Turning to `Cc1ccc(OCC(=O)N(C)Cc2cccs2)cc1` [drawing 234: 4-Me, Methyl, Thienyl], a half-maximal effect in test [1] (setting [4]) (EC50) was put at 369 nM.

In the case of `CCN(Cc1ccccc1)C(=O)COc1ccccc1` [drawing 234: H, Ethyl, Phenyl, reference compound], the EC50 in test [1] (setting [4]) amounted to 9210 nM.

In test [1] (setting [4]), `CCN(Cc1cccs1)C(=O)COc1ccccc1` [drawing 234: H, Ethyl, Thienyl] returned an EC50 of 1450 nM.

Usually EC50 stands for the midpoint of the concentration-response curve.
